Assay results: US12509449B2, “Anthelmintic compounds comprising a quinoline structure” (Intervet Inc., priority 2019, dated 2025)

Legend:
[1] = biological target: T1, human Maxi K channel (BK channel), KCNMA1 (KCa1.1) and beta1 (KCNMB1) subunits (Homo sapiens, UniProt Q12791); assay: Agonistic activity at the human Maxi K channel (BK channel), membrane potential (FLIPR) in transfected CHO K1 cells; assay type: cell-based; conditions: membrane potential dye, 70 mM KCl
T1 construct: expressed in transfected cells; host or cells: CHO K1
From the text: A CHO K1 cell line was stably transfected with the KCNMA1 (KCa1.1, U11058) and beta1 (KCNMB1) subunits of the human Maxi K channel (Ponte et al, Molecular Pharmacology 2012, 81(4), 567-577).
The complete measurement takes 150 s.

[2] = biological target: Caenorhabditis elegans slo-1a (Caenorhabditis elegans, UniProt Q95V25); assay: Agonistic activity at C. elegans Slo-1a, membrane potential (FLIPR) in transfected CHO K1 cells; conditions: EC50 agonistic activity at C. elegans Slo-1a, membrane potential dye, 70 mM KCl
Ascaridia galli L3 = assay: In vitro assay Ascaridia galli larval stage 3, minimum effective concentration; assay type: cell-based; conditions: 20 larvae per well, microscopic examination, read-out: MEC (minimum effective concentration) against Ascaridia galli L3
From the text: […] galli (intestinal roundworm of chicken), larval stage 3 (“L3”); and Oesophagostumum dentatum (nodular worm of swine), larval stages 3 and 4 (respectively “L3” and “L4”) where suspended in a nutrient medium and distributed to 96 well plates with 20 larvae per well. The wells were spiked DMSO solutions of the compounds with declining concentration.

Sequence of Caenorhabditis elegans slo-1a (Q95V25 whole entry): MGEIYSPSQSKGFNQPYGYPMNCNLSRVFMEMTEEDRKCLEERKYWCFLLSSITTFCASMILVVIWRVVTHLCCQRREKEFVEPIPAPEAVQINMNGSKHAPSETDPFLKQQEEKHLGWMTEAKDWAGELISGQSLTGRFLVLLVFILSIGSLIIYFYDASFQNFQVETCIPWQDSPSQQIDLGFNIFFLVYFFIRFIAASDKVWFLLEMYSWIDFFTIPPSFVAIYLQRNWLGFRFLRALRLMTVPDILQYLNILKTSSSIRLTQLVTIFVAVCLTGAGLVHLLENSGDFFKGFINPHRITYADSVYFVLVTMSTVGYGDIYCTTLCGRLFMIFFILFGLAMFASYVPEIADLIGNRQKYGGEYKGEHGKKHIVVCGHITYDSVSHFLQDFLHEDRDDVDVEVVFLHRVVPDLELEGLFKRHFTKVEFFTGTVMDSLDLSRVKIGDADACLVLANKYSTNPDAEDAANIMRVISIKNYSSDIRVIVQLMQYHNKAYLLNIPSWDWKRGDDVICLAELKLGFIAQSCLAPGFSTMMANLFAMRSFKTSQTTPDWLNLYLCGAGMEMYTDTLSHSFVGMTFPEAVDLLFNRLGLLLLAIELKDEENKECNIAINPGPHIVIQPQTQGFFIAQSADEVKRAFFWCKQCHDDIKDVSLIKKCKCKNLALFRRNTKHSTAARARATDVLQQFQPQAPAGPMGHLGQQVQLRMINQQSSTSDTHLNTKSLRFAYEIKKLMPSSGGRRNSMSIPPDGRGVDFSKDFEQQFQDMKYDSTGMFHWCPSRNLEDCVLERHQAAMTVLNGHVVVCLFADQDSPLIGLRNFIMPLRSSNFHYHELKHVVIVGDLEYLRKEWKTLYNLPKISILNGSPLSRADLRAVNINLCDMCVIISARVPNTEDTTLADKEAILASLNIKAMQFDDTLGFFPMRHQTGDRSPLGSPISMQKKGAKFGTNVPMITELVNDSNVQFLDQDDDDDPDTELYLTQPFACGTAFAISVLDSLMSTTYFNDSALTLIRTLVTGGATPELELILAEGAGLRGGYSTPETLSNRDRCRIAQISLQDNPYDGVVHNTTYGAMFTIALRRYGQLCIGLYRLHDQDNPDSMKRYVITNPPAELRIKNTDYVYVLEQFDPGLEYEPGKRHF
T1 sequence (Q12791 1-1178 isoform Q12791-5): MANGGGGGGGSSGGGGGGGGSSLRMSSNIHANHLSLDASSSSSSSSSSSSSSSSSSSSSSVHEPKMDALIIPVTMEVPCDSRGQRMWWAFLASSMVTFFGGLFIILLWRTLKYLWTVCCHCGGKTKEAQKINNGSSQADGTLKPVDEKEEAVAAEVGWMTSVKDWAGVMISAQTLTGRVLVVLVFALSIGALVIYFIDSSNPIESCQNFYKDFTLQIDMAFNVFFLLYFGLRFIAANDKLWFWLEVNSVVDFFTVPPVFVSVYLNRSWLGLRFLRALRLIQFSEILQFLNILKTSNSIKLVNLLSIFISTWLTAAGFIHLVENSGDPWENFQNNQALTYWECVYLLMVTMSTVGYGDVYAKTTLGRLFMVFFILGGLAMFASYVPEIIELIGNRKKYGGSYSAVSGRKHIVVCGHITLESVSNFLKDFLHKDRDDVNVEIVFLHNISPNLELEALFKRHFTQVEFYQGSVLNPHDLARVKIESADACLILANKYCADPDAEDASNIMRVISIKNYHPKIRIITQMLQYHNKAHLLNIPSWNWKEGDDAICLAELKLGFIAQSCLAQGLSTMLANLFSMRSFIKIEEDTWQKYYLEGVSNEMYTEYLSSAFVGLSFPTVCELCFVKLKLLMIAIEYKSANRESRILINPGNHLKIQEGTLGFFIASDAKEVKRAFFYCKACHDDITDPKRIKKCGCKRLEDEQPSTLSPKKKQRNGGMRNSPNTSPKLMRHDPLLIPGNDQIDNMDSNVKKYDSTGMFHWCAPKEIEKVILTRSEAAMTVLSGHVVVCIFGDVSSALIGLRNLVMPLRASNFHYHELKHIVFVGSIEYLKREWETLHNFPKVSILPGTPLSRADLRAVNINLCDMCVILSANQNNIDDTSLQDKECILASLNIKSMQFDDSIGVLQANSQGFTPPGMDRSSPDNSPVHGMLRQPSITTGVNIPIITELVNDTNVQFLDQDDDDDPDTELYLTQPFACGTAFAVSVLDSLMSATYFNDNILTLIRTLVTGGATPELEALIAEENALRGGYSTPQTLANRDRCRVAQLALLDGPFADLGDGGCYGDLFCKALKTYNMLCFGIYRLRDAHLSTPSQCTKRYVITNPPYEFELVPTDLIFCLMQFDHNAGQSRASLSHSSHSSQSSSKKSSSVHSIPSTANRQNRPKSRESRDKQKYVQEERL
T1 sequence (Q16558 whole entry partner): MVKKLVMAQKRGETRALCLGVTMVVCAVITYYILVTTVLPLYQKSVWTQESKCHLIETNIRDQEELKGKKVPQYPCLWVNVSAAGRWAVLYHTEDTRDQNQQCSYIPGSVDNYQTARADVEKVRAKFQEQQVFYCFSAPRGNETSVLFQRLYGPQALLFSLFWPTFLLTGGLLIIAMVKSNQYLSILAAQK

Structure (SMILES)	EC50 [1]	EC50 [2]	minimal effective concentration (Ascaridia galli L3)
COCCNc1c(NC(=O)C2CCCc3ccccc32)cnc2c(-c3cccc(Cl)c3Cl)cccc12 (centres unmarked) [Compound 101]	10 to 30 µM	–	–
CN(C)c1c(NC(=O)C2CCc3ccccc32)cnc2c(-c3cccc(Cl)c3Cl)c(F)ccc12 (centres unmarked) [Compound 140]	10 to 30 µM	< 1 µM	–
O=C(Nc1cnc2c(-c3cc(Cl)cc(Cl)c3)c(Cl)ccc2c1N1CCOCC1)[C@H]1CCCc2ccccc21 [Compound 185]	10 to 30 µM	< 1 µM	–
CC(C)Oc1c(NC(=O)C2CCOc3ccccc32)cnc2c(-c3cc(Cl)cc(Cl)c3)cccc12 (centres unmarked) [Compound 78]	> 30 µM	–	–
CC(C(=O)Nc1cnc2c(-c3cccc(Cl)c3Cl)cccc2c1N(C)C)c1cccc(N(C)C)c1 (centres unmarked) [Compound 50]	> 30 µM	–	≤ 50 µM
COCCN(C)c1c(NC(=O)C2CCOc3ccccc32)cnc2c(-c3cccc(Cl)c3Cl)cccc12 (centres unmarked) [Compound 93]	> 30 µM	–	–
COCCN(C)c1c(NC(=O)C2CCCc3ccccc32)cnc2c(-c3cccc(Cl)c3Cl)cccc12 (centres unmarked) [Compound 103]	> 30 µM	< 1 µM	–
CC(C)Oc1c(NC(=O)C2CCCc3ccccc32)cnc2c(-c3cc(Cl)cc(Cl)c3)cccc12 (centres unmarked) [Compound 76, N-(8-(3,5-dichlorophenyl)-4-isopropoxyquinolin-3-yl)-1,2,3,4-tetrahydro-naphthalene-1-carboxamide]	> 30 µM	–	≤ 50 µM
O=C(Nc1cnc2c(-c3cccc(Cl)c3Cl)cccc2c1N1CCOCC1)C1CCc2ccccc21 (centres unmarked) [Compound 20]	1 to 10 µM	< 1 µM	–
O=C(Nc1cnc2c(-c3cccc(Cl)c3Cl)cccc2c1N1CCOCC1)C1CCCc2ccccc21 (centres unmarked) [Compound 19]	1 to 10 µM	< 1 µM	–
CN(C)c1c(NC(=O)C2CCOc3ccccc32)cnc2c(-c3cc(Cl)cc(Cl)c3)c(Cl)ccc12 (centres unmarked) [Compound 171]	> 30 µM	< 1 µM	–
CC(C(=O)Nc1cnc2c(-c3cc(Cl)cc(Cl)c3)cccc2c1N1CCOCC1)c1ccccc1 (centres unmarked) [Compound 9]	> 30 µM	< 1 µM	–
O=C(Nc1cnc2c(-c3cc(Cl)cc(Cl)c3)c(F)ccc2c1N1CCOCC1)C1CCOc2ccccc21 (centres unmarked) [Compound 126]	> 30 µM	< 1 µM	–
Cc1ccc2c(N3CCOCC3)c(NC(=O)C3CCOc4ccccc43)cnc2c1-c1cc(Cl)cc(Cl)c1 (centres unmarked) [Compound 174]	> 30 µM	< 1 µM	–
Cc1c(NC(=O)c2ccnc3ccccc23)cnc2c(-c3cccc(Cl)c3Cl)cccc12 [Compound 106]	> 30 µM	–	–
C=C(C)c1c(NC(=O)c2cccc3ccccc23)cnc2c(-c3cc(Cl)cc(Cl)c3)cccc12 [Compound 200]	> 30 µM	–	≤ 50 µM
CCc1c(NC(=O)c2ccnc3ccccc23)cnc2c(-c3cccc(Cl)c3Cl)cccc12 [Compound 104]	> 30 µM	–	≤ 50 µM
O=C(Nc1cnc2c(-c3cc(Cl)cc(Cl)c3)c(F)ccc2c1N1CCOCC1)c1cccc2ccccc12 [Compound 146]	10 to 30 µM	< 1 µM	–
CCOc1c(NC(=O)c2cccc3ccccc23)cnc2c(-c3cccc(Cl)c3Cl)c(F)ccc12 [Compound 149]	> 30 µM	< 1 µM	–
C=C(C)c1c(NC(=O)c2cccc3ccccc23)cnc2c(-c3cccc(Cl)c3Cl)cccc12 [Compound 189]	> 30 µM	–	–
CN(C)c1c(NC(=O)c2cccc3ccccc23)cnc2c(-c3cc(Cl)cc(Cl)c3)cccc12 [Compound 153]	> 30 µM	< 10 µM	–
CC(C)c1c(NC(=O)C2CCCc3ccccc32)cnc2c(-c3cccc(Cl)c3Cl)cccc12 (centres unmarked) [Compound 109]	> 30 µM	< 1 µM	–
O=C(Nc1cnc2c(-c3cc(Cl)cc(Cl)c3)c(Cl)ccc2c1N1CCOCC1)C1CCOc2ccccc21 (centres unmarked) [Compound 170]	> 30 µM	< 1 µM	–
Cc1ccc2c(N(C)C)c(NC(=O)[C@H]3CCCc4ccccc43)cnc2c1-c1cccc(Cl)c1Cl [Compound 184]	10 to 30 µM	< 1 µM	–
CC(C)N(C)c1c(NC(=O)C2CCOc3ccccc32)cnc2c(-c3cccc(Cl)c3Cl)cccc12 (centres unmarked) [Compound 89]	> 30 µM	–	≤ 50 µM
Cc1c(NC(=O)c2cccc3ccccc23)cnc2c(-c3cc(Cl)cc(Cl)c3)cccc12 [Compound 198]	> 30 µM	–	≤ 50 µM
O=C(Nc1cnc2c(-c3cc(Cl)cc(Cl)c3)cccc2c1O)c1cccc2ccccc12 [Compound 66]	> 30 µM	–	≤ 50 µM
O=C(Nc1cnc2c(-c3cccc(Cl)c3Cl)c(F)ccc2c1N1CCOCC1)C1CCCc2ccccc21 (centres unmarked) [Compound 121]	1 to 10 µM	< 1 µM	–

More lines, main results first:

EC50 [1]	EC50 [2]	Structure (SMILES)	minimal effective concentration (Ascaridia galli L3)
> 30 µM	–	O=C(Nc1cnc2c(-c3cccc(Cl)c3Cl)cccc2c1O)C1CCc2ccccc21 (centres unmarked) [Compound 111]	–
> 30 µM	–	CCOc1c(NC(=O)C2CCc3ccccc32)cnc2c(-c3cc(Cl)cc(Cl)c3)c(F)ccc12 (centres unmarked) [Compound 134]	–
> 30 µM	< 10 µM	O=C(Nc1cnc2c(-c3cc(Cl)cc(Cl)c3)cccc2c1O)C1CCc2ccccc21 (centres unmarked) [Compound 65]	–
> 30 µM	–	CC(C)Nc1c(NC(=O)C2CCCc3ccccc32)cnc2c(-c3cccc(Cl)c3Cl)cccc12 (centres unmarked) [Compound 97]	–
10 to 30 µM	< 1 µM	O=C(Nc1cnc2c(-c3cc(Cl)cc(Cl)c3)cccc2c1N1CCOCC1)C1CCc2ccccc21 (centres unmarked) [Compound 82]	–
1 to 10 µM	–	O=C(Nc1cnc2c(-c3cccc(Cl)c3Cl)cccc2c1N1CCOCC1)[C@H]1CCCc2ccccc21 [Compound 53]	–
> 30 µM	–	O=C(Nc1cnc2c(-c3cc(Cl)cc(Cl)c3)cccc2c1O)C1CCOc2ccccc21 (centres unmarked) [Compound 64]	–
> 30 µM	< 10 µM	Cc1c(NC(=O)c2cccc3ccccc23)cnc2c(-c3cccc(Cl)c3Cl)cccc12 [Compound 190]	–
> 30 µM	< 1 µM	CCCc1c(NC(=O)c2cccc3ccccc23)cnc2c(-c3cccc(Cl)c3Cl)cccc12 [Compound 187]	–
1 to 10 µM	< 1 µM	CN(C)c1c(NC(=O)C2CCCc3ccccc32)cnc2c(-c3cccc(Cl)c3Cl)cccc12 (centres unmarked) [Compound 13]	–
> 30 µM	< 1 µM	CN(C)c1c(NC(=O)[C@H]2CCCc3ccccc32)cnc2c(-c3cc(Cl)cc(Cl)c3)c(Cl)ccc12 [Compound 186]	–
1 to 10 µM	< 1 µM	O=C(Nc1cnc2c(-c3cccc(Cl)c3Cl)c(F)ccc2c1N1CCOCC1)C1CCc2ccccc21 (centres unmarked) [Compound 141]	–
> 30 µM	< 1 µM	CN(C)c1c(NC(=O)C2CCc3ccccc32)cnc2c(-c3cc(Cl)cc(Cl)c3)c(F)ccc12 (centres unmarked) [Compound 135]	–
> 30 µM	< 1 µM	CCOc1c(NC(=O)C2CCc3ccccc32)cnc2c(-c3cccc(Cl)c3Cl)c(F)ccc12 (centres unmarked) [Compound 139]	–
> 30 µM	–	CC(C)Oc1c(NC(=O)C2CCCc3ccccc32)cnc2c(-c3cc(Cl)cc(Cl)c3)c(F)ccc12 (centres unmarked) [Compound 117]	–
> 30 µM	< 1 µM	CCOc1c(NC(=O)[C@H]2CCCc3ccccc32)cnc2c(-c3cccc(Cl)c3Cl)cccc12 [Compound 54]	–

EC50 [1]	EC50 [2]	Structure (SMILES)	minimal effective concentration (Ascaridia galli L3)
> 30 µM	< 1 µM	CCc1c(NC(=O)C2CCOc3ccccc32)cnc2c(-c3cccc(Cl)c3Cl)cccc12 (centres unmarked) [Compound 105]	–
> 30 µM	< 1 µM	CCc1c(NC(=O)[C@H]2CCCc3ccccc32)cnc2c(-c3cccc(Cl)c3Cl)cccc12 [Compound 204]	–
10 to 30 µM	< 1 µM	O=C(Nc1cnc2c(-c3cc(Cl)cc(Cl)c3)cccc2c1N1CCOCC1)c1cccc2ccccc12 [Compound 74]	–
> 30 µM	< 1 µM	CN(C)c1c(NC(=O)C2CCCc3ccccc32)cnc2c(-c3cc(Cl)cc(Cl)c3)cccc12 (centres unmarked) [Compound 68]	–
> 30 µM	–	CC(C)Oc1c(NC(=O)C2CCc3ccccc32)cnc2c(-c3cc(Cl)cc(Cl)c3)cccc12 (centres unmarked) [Compound 80]	–
> 30 µM	< 1 µM	COc1c(NC(=O)c2cccc3ccccc23)cnc2c(-c3cccc(Cl)c3Cl)cccc12 [Compound 62]	–
> 30 µM	< 10 µM	CCOc1c(NC(=O)c2cccc3ccccc23)cnc2c(-c3cc(Cl)cc(Cl)c3)c(F)ccc12 [Compound 144]	–
> 30 µM	< 1 µM	COc1c(NC(=O)[C@H]2CCCc3ccccc32)cnc2c(-c3cccc(Cl)c3Cl)c(C)ccc12 [Compound 183]	–
> 30 µM	< 10 µM	O=C(Nc1cnc2c(-c3cc(Cl)cc(Cl)c3)cccc2c1N1CCOCC1)C1CCOc2ccccc21 (centres unmarked) [Compound 7]	–
> 30 µM	–	O=C(Cc1ccccc1)Nc1cnc2c(-c3cc(Cl)cc(Cl)c3)cccc2c1N1CCOCC1 [Compound 5]	–
> 30 µM	< 1 µM	CCOc1c(NC(=O)C2CCCc3ccccc32)cnc2c(-c3cccc(Cl)c3Cl)cccc12 (centres unmarked) [Compound 55]	–
10 to 30 µM	–	CCNc1c(NC(=O)C2CCCc3ccccc32)cnc2c(-c3cccc(Cl)c3Cl)cccc12 (centres unmarked) [Compound 96]	≤ 50 µM
> 30 µM	–	CC(C)Oc1c(NC(=O)C2CCCc3ccccc32)cnc2c(-c3cccc(Cl)c3Cl)cccc12 (centres unmarked) [Compound 59]	–
> 30 µM	< 1 µM	CCOc1c(NC(=O)C2CCCc3ccccc32)cnc2c(-c3cccc(Cl)c3Cl)c(F)ccc12 (centres unmarked) [Compound 119]	–
10 to 30 µM	< 1 µM	CN(C)c1c(NC(=O)c2cccc3ccccc23)cnc2c(-c3cccc(Cl)c3Cl)c(F)ccc12 [Compound 150]	–
